Data as given in patent publication US8975267B2, “Tricyclic pyrrolo derivatives, process for their preparation and their use as kinase inhibitors” (Nerviano Medical Sciences S.r.l., priority 2011, dated 2015).
Where a name gives a salt, the structure may show the parent alone.

Experiments:
PIM-2 = PIM-2 (Homo sapiens (Human), UniProt Q9P1W9); assay: PIM-2 kinase inhibition assay: Dowex technique; type: biochemical; details: 4 microM ATP, 5 microM Aktide, 1.5 nM enzyme
Procedure: Method for PIM-2 Kinase Inhibition Assay: Dowex Technique
The buffer for PIM-2 assay was composed of HEPES 50 mM, at pH 7.5, with 1 mM MgCl2, 1 mM DTT, 3 microM Na3VO4, and 0.2 mg/mL BSA
Full-length human PIM-2 was expressed and purified as described in Fedorov O, et al., PNAS 2007 104, 51, 20523-28.
Enzyme concentration=1.5 nM
Aktide substrate (Chemical Abstract Service Registry Number 324029-01-8)=5 microM
See above: same procedure as described for PIM-1.

MPS1 = MPS1 (Homo sapiens (Human), UniProt P33981); assay: Biochemical assay for inhibitors of MPS1 kinase activity (trans-phosphorylation, Dowex); details: 15 microM ATP, 200 microM P38-βtide substrate, 5 nM MPS1
Procedure: Cloning, Expression and Purification of Recombinant MPS1 Full Length Protein.
MPS1 full length (corresponding to residues 2-857 of the full length sequence, see Swiss-Prot accession number P33981) was PCR amplified from the full-length human MPS1 gene present in house as clone pGEX4t_MPS1.
To get a fully activated enzyme, the protein was then subjected to auto-phosphorylation in presence of ATP 1 mM at 25° C. for 2 hours in kinase buffer (Hepes pH7.5 50 mM, MgCl2 2.5 mM, MnCl2 1 mM, DTT 1 mM, phosphatase inhibitors); ATP was then removed whit a desalting column.
Biochemical Assay for Inhibitors of MPS1 Kinase Activity
(§1) The inhibitory activity of putative kinase inhibitors and the potency of selected compounds were determined using a trans-phosphorylation assay.
(§2) Specific peptide or protein substrates are trans-phosphorylated by their specific ser-thr or tyr kinase in the presence of ATP traced with ^33P-γ-ATP, and in the presence of their own optimal buffer and cofactors.
At the end of the phosphorylation reaction, more than 98% unlabeled ATP and radioactive ATP is captured by an excess of the ion exchange dowex resin; the resin then settles down to the bottom of the reaction plate by gravity. Supernatant is subsequently withdrawn and transferred into a counting plate, then evaluated by β-counting.
The buffer for MPS1 assay was composed of HEPES 50 mM, at pH 7.5, with 2.5 mM MgCl2, 1 mM MnCl2, 1 mM DTT, 3 microM Na3VO4, 2 mM β-glycerophosphate and 0.2 mg/mL BSA.
The assay was run with a final concentration MPS1 of 5 nM, in the presence of 15 microM ATP and 1.5 nM ^33P-γ-ATP; the substrate was P38-βtide, used at 200 microM.
a) for percent inhibition studies (HTS), individual dilution plates at 1 mM are diluted at a 3× concentration (30 microM) in ddH2O (3% DMSO=final concentration) using a Beckman NX automated pipetting platform. The same instrument is used for distributing the diluted mother plates into the test plates. b) for IC50 determination (KSS platform), 100 microL of each compound at 1 mM in 100% DMSO are transferred from the original plate into the first column of another 96 well plate (A1 to G1); well H1 is left empty for the internal standard inhibitor, usually staurosporine.
An automated station for serial dilutions (Biomek FX, Beckman) is used for producing 1:3 dilutions in 100% DMSO, from line A1 to A10, and for all the seven compounds in the column. Moreover, 4-5 copies of daughter plates are prepared by reformatting 5 microL of this first set of 100% DMSO dilution plates into 384 deep well-plates: one copy of the daughter plates with the serial dilutions of test compounds will be thaw the day of the experiments, reconstituted at a 3× concentration with water and used in the IC50 determination assays. In a standard experiment, the highest concentration (3×) of all compounds is 30 microM, while the lowest one is 1.5 nM.
384-well plates, V bottom (test plates) are prepared with 5 microL of the compound dilution (3×) and then placed onto a PlateTrak 12 robotized station (Perkin Elmer; the robot has one 384-tips pipetting head for starting the assay plus one 96-tips head for dispensing the resin) together with one reservoir for the Enzyme mix (3×) and one for the ATP mix (3×).
At the start of the run, the robot aspirates 5 microL of ATP mix, makes an air gap inside the tips (2 microL) and aspirates 5 microL of MPS1 mix. The following dispensation into the plates allows the kinase reaction to start upon 3 cycles of mixing, done by the robot itself.
The robot incubates the plates for 60 minutes at room temperature, and then stops the reaction by pipetting 70 microL of dowex resin suspension into the reaction mix. Three cycles of mixing are done immediately after the addition of the resin.
Another mixing cycle is performed after all the plates are stopped, this time using normal tips: the plates are then allowed to rest for about one hour in order to maximize ATP capture. […]

PIM-1 = PIM-1 (Homo sapiens (Human), UniProt P11309); assay: Biochemical assay for inhibitors of PIM-1 kinase activity (trans-phosphorylation, Dowex); details: 200 microM ATP, 25 microM Aktide, 1 nM enzyme
Procedure: Biochemical Assay for Inhibitors of PIM-1 Kinase Activity
as §1, §2
At the end of the phosphorylation reaction, more than 98% unlabeled ATP and radioactive ATP is captured by an excess of the ion exchange dowex resin; the resin then settles down to the bottom of the reaction plate by gravity.
Supernatant is subsequently withdrawn and transferred into a counting plate, then evaluated by β-counting.
The buffer for PIM-1 assay was composed of HEPES 50 mM, at pH 7.5, with 10 mM MgCl2, 1 mM DTT, 3 microM NaVO3, and 0.2 mg/ml BSA
Full-length human PIM-1 was expressed and purified as described in Bullock A N, et al., J. Biol. Chem. 2005, 280, 41675-82.
ATP concentration: 200 microM
Enzyme concentration: 1 nM
Substrate concentration Aktide (Chemical Abstract Service Registry Number 324029-01-8): 25 microM
For IC50 determination, test compounds are received as a 1 mM solution in 100% DMSO and distributed into 96-well plates: compounds are then plated into the first column of a new 96-well plate (A1 to G1), 100 microL/well.
An automated station (Biomek FX, Beckman) is used for serial dilutions, producing 1:3 dilutions in 100% DMSO, from line A1 to A10, for all the compounds in the column. Moreover, 4-5 copies of daughter plates are prepared by reformatting 5 microL of this first set of 100% DMSO dilution plates into 384-deep well plates: one copy of these serial dilution plates with the test compounds is thawed on the day of study, reconstituted at the working concentration (3-fold the final concentration) with 162 microL/well of water and used for IC50 determination assays. In a standard experiment, the highest concentration (3×) of compounds is typically 30 microM, while the lowest one is typically 1.5 nM.
Each 384-well plate generates at least one curve of the standard inhibitor staurosporine and reference wells (total enzyme activity vs. no enzymatic activity) for evaluation of Z′ and signal to background (S/B) ratio.
384-well plates, V bottom (test plates) are prepared with 5 microL of compound diluted as previously described (3×) and then placed onto a PlateTrak 12 robotized station (Perkin Elmer; the robot has one 384-tip pipetting head for assay start, plus one 96-tip head for dispensing resin) together with one reservoir for Enzyme mix (3×) and one for ATP mix (3×).
Data are analyzed by an internally customized version of the “Assay Explorer” SW package, which provides sigmoidal fitting of the ten-dilution curves for IC50 determination in secondary assay/hit confirmation routines.

MPS1, sequence (P33981 2-857): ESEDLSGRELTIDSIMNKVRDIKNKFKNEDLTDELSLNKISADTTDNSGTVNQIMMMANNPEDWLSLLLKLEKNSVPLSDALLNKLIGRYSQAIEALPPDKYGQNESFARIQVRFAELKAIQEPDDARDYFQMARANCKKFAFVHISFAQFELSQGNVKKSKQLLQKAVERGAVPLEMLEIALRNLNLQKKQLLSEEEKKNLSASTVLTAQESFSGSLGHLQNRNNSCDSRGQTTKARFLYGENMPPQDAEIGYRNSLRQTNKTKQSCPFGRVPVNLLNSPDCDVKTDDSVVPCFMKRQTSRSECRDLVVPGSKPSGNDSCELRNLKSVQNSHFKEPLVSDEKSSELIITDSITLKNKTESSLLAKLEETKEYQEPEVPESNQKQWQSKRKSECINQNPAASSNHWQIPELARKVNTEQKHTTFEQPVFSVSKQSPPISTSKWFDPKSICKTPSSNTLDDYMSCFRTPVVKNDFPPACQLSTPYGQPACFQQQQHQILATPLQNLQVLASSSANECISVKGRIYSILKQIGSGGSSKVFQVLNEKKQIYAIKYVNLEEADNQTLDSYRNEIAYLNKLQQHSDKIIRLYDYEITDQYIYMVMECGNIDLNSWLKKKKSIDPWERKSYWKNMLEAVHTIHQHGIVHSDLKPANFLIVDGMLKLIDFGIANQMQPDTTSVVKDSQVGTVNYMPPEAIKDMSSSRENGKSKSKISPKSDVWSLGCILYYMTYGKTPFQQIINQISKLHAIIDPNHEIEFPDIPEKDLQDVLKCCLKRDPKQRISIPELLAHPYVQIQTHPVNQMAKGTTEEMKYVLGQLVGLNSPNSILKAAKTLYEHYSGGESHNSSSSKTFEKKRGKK
PIM-1, sequence (P11309 whole entry): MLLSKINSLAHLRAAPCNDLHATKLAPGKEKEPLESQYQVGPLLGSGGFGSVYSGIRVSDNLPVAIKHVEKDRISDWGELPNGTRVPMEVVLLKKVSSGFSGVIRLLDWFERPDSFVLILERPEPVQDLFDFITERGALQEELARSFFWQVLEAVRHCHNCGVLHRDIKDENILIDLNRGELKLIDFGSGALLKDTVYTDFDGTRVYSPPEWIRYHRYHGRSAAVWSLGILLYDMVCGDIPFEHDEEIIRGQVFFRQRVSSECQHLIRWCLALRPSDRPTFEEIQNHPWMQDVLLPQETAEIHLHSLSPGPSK
PIM-2, sequence (Q9P1W9 whole entry): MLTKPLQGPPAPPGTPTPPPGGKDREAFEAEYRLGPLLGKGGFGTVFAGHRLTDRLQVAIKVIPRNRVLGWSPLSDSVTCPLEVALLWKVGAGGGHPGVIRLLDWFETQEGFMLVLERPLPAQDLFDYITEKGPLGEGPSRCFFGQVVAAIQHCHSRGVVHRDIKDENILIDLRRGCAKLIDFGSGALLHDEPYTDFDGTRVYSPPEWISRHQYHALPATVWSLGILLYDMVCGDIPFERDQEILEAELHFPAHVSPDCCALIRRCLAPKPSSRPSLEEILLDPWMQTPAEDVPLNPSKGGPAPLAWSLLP

SMILES: CCc1cccc(CC)c1NC(=O)c1c2c(n(C)c1C)-c1nc(Nc3ccc(N4CCC(N5CCCC5)CC4)cc3OC)ncc1CC2 [Compound 3, N-(2,6-diethylphenyl)-2-({2-methoxy-4-[4-(pyrrolidin-1-yl)piperidin-1-yl]phenyl}amino)-8,9-dimethyl-6,9-dihydro-5H-pyrrolo[3,2-h]quinazoline-7-carboxamide]
- IC50 (PIM-2): > 10000 nM
- IC50 (MPS1): 99 nM
- IC50 (PIM-1): > 10000 nM

SMILES: COc1cc(N2CCN(C)CC2)ccc1Nc1ncc2c(n1)-c1c(c(C(N)=O)c(C)n1C)CC2 [Compound 7, 2-{[2-methoxy-4-(4-methylpiperazin-1-yl)phenyl]amino}-8,9-dimethyl-6,9-dihydro-5H-pyrrolo[3,2-h]quinazoline-7-carboxamide]
- IC50 (PIM-2): > 5000 nM
- IC50 (MPS1): 23 nM
- IC50 (PIM-1): 748 nM

SMILES: CCc1cccc(CC)c1NC(=O)c1cn(C)c2c1CCCc1cnc(Nc3ccc(N4CCN(C)CC4)cc3OC)nc1-2 [Compound 16, N-(2,6-diethylphenyl)-2-{[2-methoxy-4-(4-methylpiperazin-1-yl)phenyl]amino}-10-methyl-5,6,7,10-tetrahydropyrrolo[3′,2′:6,7]cyclohepta[1,2-d]pyrimidine-8-carboxamide]
- IC50 (PIM-2): > 10000 nM
- IC50 (MPS1): 132 nM
- IC50 (PIM-1): > 10000 nM

SMILES: CSc1ncc2c(n1)-c1c(c(C(N)=O)cn1C(C)C)CC2 [Compound 22, 2-(methylsulfanyl)-9-(propan-2-yl)-6,9-dihydro-5H-pyrrolo[3,2-h]quinazoline-7-carboxamide]
- IC50 (PIM-2): 24 nM
- IC50 (MPS1): 382 nM
- IC50 (PIM-1): 16 nM

SMILES: CSc1ncc2c(n1)-c1c(c(C(N)=O)cn1CCO)CC2 [Compound 25, 9-(2-hydroxyethyl)-2-(methylsulfanyl)-6,9-dihydro-5H-pyrrolo[3,2-h]quinazoline-7-carboxamide]
- IC50 (PIM-2): 540 nM
- IC50 (MPS1): 2440 nM
- IC50 (PIM-1): 133 nM

SMILES: CSc1ncc2ccc3c(C(N)=O)c(C)n(CCO)c3c2n1 [Compound 29, 9-(2-hydroxyethyl)-8-methyl-2-(methylsulfanyl)-9H-pyrrolo[3,2-h]quinazoline-7-carboxamide]
- IC50 (PIM-2): 408 nM
- IC50 (MPS1): 2940 nM
- IC50 (PIM-1): 87 nM

SMILES: CSc1ncc2ccc3c(C(N)=O)c(C)n(C(C)C)c3c2n1 [Compound 30, 8-methyl-2-(methylsulfanyl)-9-(propan-2-yl)-9H-pyrrolo[3,2-h]quinazoline-7-carboxamide]
- IC50 (PIM-2): 12 nM
- IC50 (MPS1): 622 nM
- IC50 (PIM-1): 4 nM

SMILES: CSc1ncc2c(n1)-c1c(c(C(N)=O)cn1C1CCNCC1)CC2 [Compound 32, 2-(methylsulfanyl)-9-(piperidin-4-yl)-6,9-dihydro-5H-pyrrolo[3,2-h]quinazoline-7-carboxamide hydrochloride]
- IC50 (PIM-2): 159 nM
- IC50 (MPS1): > 10000 nM
- IC50 (PIM-1): 74 nM

SMILES: CSc1ncc2c(n1)-c1c(c(C(N)=O)cn1[C@H]1CC[C@@H](N)CC1)CC2 [Compound 33, 9-(cis 4-aminocyclohexyl)-2-(methylsulfanyl)-6,9-dihydro-5H-pyrrolo[3,2-h]quinazoline-7-carboxamide hydrochloride]
- IC50 (PIM-2): 7 nM
- IC50 (MPS1): 1550 nM
- IC50 (PIM-1): 5 nM

SMILES: CSc1ncc2ccc3c(C(N)=O)cn([C@H]4CC[C@@H](N)CC4)c3c2n1 [Compound 34, 9-(cis-4-aminocyclohexyl)-2-(methylsulfanyl)-9H-pyrrolo[3,2-h]quinazoline-7-carboxamide]
- IC50 (PIM-2): 1 nM
- IC50 (MPS1): 855 nM
- IC50 (PIM-1): 0.8 nM

SMILES: CSc1ncc2ccc3c(C(N)=O)cn(C4CCNCC4)c3c2n1 [Compound 35, 2-(methylsulfanyl)-9-(piperidin-4-yl)-9H-pyrrolo[3,2-h]quinazoline-7-carboxamide]
- IC50 (PIM-2): 23 nM
- IC50 (MPS1): 4550 nM
- IC50 (PIM-1): 7 nM

SMILES: CSc1ncc2ccc3c(C(N)=O)c[nH]c3c2n1 [Compound 36, 2-(methylsulfanyl)-9H-pyrrolo[3,2-h]quinazoline-7-carboxamide]
- IC50 (PIM-2): 46 nM
- IC50 (MPS1): 814 nM
- IC50 (PIM-1): 13 nM

SMILES: CSc1ncc2ccc3c(C(N)=O)cn(CC(C)(C)CN)c3c2n1 [Compound 38, 9-(3-amino-2,2-dimethylpropyl)-2-(methylsulfanyl)-9H-pyrrolo[3,2-h]quinazoline-7-carboxamide hydrochloride]
- IC50 (PIM-2): 34 nM
- IC50 (MPS1): 2940 nM
- IC50 (PIM-1): 24 nM

SMILES: Cn1cc(C(N)=O)c2c1-c1nc(N)ncc1CC2 [Ref. cmpound 1, 2-amino-9-methyl-6,9-dihydro-5H-pyrrolo[3,2-h]quinazoline-7-carboxamide, reference compound]
- IC50 (PIM-2): > 10000 nM
- IC50 (MPS1): > 10000 nM
- IC50 (PIM-1): > 10000 nM

SMILES: NC(=O)c1c(-c2ccccc2)[nH]c2c1ccc1cnc(N)nc12 [compound 2, 2-amino-8-phenyl-9H-pyrrolo[3,2-h]quinazoline-7-carboxamide, reference compound]
- IC50 (PIM-2): > 10000 nM
- IC50 (MPS1): > 5000 nM
- IC50 (PIM-1): > 5000 nM

SMILES: Cn1c2c(c(C(N)=O)c1-c1ccccc1)CCc1cnc(N)nc1-2 [compound 3, 2-amino-9-methyl-8-phenyl-6,9-dihydro-5H-pyrrolo[3,2-h]quinazoline-7-carboxamide, reference compound]
- IC50 (PIM-2): > 10000 nM
- IC50 (MPS1): > 5000 nM
- IC50 (PIM-1): > 5000 nM

SMILES: Cn1c(-c2ccccc2)c(C(N)=O)c2ccc3cnc(N)nc3c21 [compound 4, 2-amino-9-methyl-8-phenyl-9H-pyrrolo[3,2-h]quinazoline-7-carboxamide, reference compound]
- IC50 (PIM-2): > 10000 nM
- IC50 (MPS1): > 5000 nM
- IC50 (PIM-1): > 5000 nM
